US20220133679A1, “EFFLUX INHIBITOR COMPOSITIONS AND METHODS OF TREATMENT USING THE SAME” (Izumi Technology, LLC, priority 2012, published 2022)

Key:
MDCK cell monolayer = assay: in vitro; type: in vitro ADME; details: dog, 1 μM
Experimental: (§1) An in vitro permeability assay using the MDCK cell line was performed to investigate the ability of elacridar to cross cellular membranes. […] Specifically, non-transduced MDCK cells, expressing only basal amounts of endogenous ABC-transporters, were seeded in the apical compartments of a 24 mm Transwell plate (3.0 μm Pore Polycarbonate Membrane Inserts) and incubated at 37° C. and 5.0% CO2 conditions until confluency was reached. Both apical-to-basolateral and basolateral-to-apical transport was analyzed in triplicate. To each donor compartment, 2 ml of Minimal Essential Medium (supplemented with 20% Fetal Bovine Serum) containing 1 μM elacridar and 50 nCi/ml (1.85 kBq/ml)^14C-inulin was added, while each acceptor compartment was filled with 2 ml blank Minimal Essential Medium (supplemented with 20% Fetal Bovine Serum). Samples of 100 μl were taken from each acceptor compartment at t=5 min, 30 min, 1 h, 2 h and 4 h as well as from all donor solutions for HPLC-MS/MS analysis of elacridar.
(§2) Samples for HPLC-MS/MS analysis were prepared as follows. Samples (50 μl) were pipetted into a 2 ml eppendorf vial and the internal standard (IS) solution (1 μM of elacridar-d4) in Minimal Essential Medium (supplemented with 20% Fetal Bovine Serum) and 1 ml of diethyl ether were added. […] An aliquot of 75 μl was subjected to HPLC-MS/MS using the conditions and set-up as described above for elacridar.
(§3) Leakage of the transwell membrane, as indicated by ^14C-inulin accumulation in the acceptor compartment, was analyzed in 10 μl samples from all time points as well as donor solutions. To each sample, 3 ml of Ultima Gold solution was added and vials were mixed thoroughly prior to radioactivity analysis using a Liquid Scintillation Counter.

in vitro = in vitro ADME; details: dog, MDCK
Experimental: as §1, §2, §3

[1] = parameters: species or system female Sprague-Dawley rats; details: rat, in vivo, 100 mg/kg
Experimental: Studies were conducted in female Sprague-Dawley rats. […] The selected 100 mg/kg dose is well above the level where nonlinear pharmacokinetics have been documented. Ten animals were used at weekly intervals between each dosing to allow washout of the drug from the previous dosing.
Elacridar suspension formulation was prepared by weighing 100.03 mg of elacridar, which was first suspended in 5 ml of water, followed by 5 ml of vehicle solution (2.5% w/v of hydroxypropyl methyl cellulose (HPMC) and 2% v/v of Tween 80). This suspension was stirred for about 2.5 hours prior to dosing. The final concentration was 10 mg/ml. This suspension was given at 10 μl per gram body weight to achieve a dose level of 100 mg/kg
Elacridar nanoparticle (NP) suspensions were used as received, except for a final 5-fold dilution step to obtain a NP suspension of 10 mg/ml of elacridar.
There were three study groups: 1) Elacridar Suspension (n=4); 2) Elacridar TPGS nanoparticles (n=5); and 3) Elacridar Poloxamer nanoparticles (n=5). All animals received elacridar orally by gavage under light isoflurane anesthesia. The animals were fasted for a period of 3 h before drug administration. Food pellets were returned to the cages after the 4 h sampling point. Blood samples from the tail vein at: 15, 30 min, 1, 2, 4, 7, 24, 30 and 48 hours. Samples were kept on ice and centrifuged within 2 h to separate plasma. Plasma was stored at −20° C.
Formulation for i.v. administration was prepared by weighing 61.12 mg of elacridar and dissolving this in 2.056 ml of DMSO. The final concentration was 30 mg/ml. Animals (n=4) received […] per gram body weight (5 mg/kg). Blood samples were taken from the tail vein at: 5, 15, 30 min, 1, 2, 4, 7, 24, 30 and 48 h. Samples were kept on ice and centrifuged within 2 h to separate plasma. Plasma was stored at −20° C.
Samples were pre-treated as follows. […] 1000 μl of diethyl ether was added.

COc1cc2c(cc1OC)CN(CCc1ccc(NC(=O)c3cccc4c(=O)c5cccc(OC)c5[nH]c34)cc1)CC2 [elacridar]
amount of elacridar at the receptor side relative to drug content at the donor side (MDCK cell monolayer): about 6%
Papp A→B at 4 h, 1 μM (in vitro): 11.2 ×10⁻⁶ cm/s
Papp B→A at 4 h, 1 μM (in vitro): 10.9 ×10⁻⁶ cm/s
tolerability of dosing [1]: tolerated these doses of elacridar without any problem
